Two molecules from patent US10905691B2, “Use of triazolo(4,5-d)pyrimidine derivatives for prevention and treatment of bacterial infection” (Universite de Liege, priority 2016, dated 2021) can be followed below.

By MIC is commonly meant the lowest concentration found to suppress growth.

Where two headings read alike, the source gives them in different places.

In experiment [1] the test system is E. faecalis vancomycin-resistant (VRE) ATCC BAA-2365. Nature of the experiment: MIC determination (EUCAST, Mueller-Hinton broth). In kind it is cell-based. Particulars: Enterococcus faecalis. The protocol:
Further experiments were conducted using different strains of E. faecalis, as clinically relevant Gram-positive bacterial strains: E. faecalis vancomycin-resistant (VRE) ATCC BAA-2365, and E. faecalis ATCC 29212 in order to determine the Minimal Inhibitory Concentration (MIC) which is the minimal concentration required to prevent bacterial growth; the Minimal Bactericidal Concentration (MBC) which determines the lowest concentration at which an antimicrobial agent kill a particular microorganism and a Minimum Duration for killing 99.9% bacteria (MDK99.9) which is a tolerance metric according to the EUCAST.
MIC determination: A single colony selected from the different strains of E. faecalis is resuspended and cultured in the appropriate medium overnight (O/N) in aerobic conditions (37° C. with 220 rpm shaking), next day a 1:100 inoculum in Mueller-Hinton broth (MHB) was incubated in aerobic conditions for 3 hr (OD=0.08-0.1) and an inoculum of 1:300 dilution, corresponding to 3×10^5 CFU/ml, was incubated in presence or absence of different concentrations of Triafluocyl in 1% DMSO. […]
The Minimal Inhibitory Concentration (MIC) and the Minimal Bactericidal Concentration (MBC) of Fluometacyl were determined on several gram-positive strains (Table 2) following EUCAST (European Committee on Antimicrobial susceptibility Testing) recommendations. […]

Experiment [2] deals with S. aureus MRSA (ATCC BAA-1556). Put plainly: Killing curve (CFU counting). The experiment is classed as cell-based, Staphylococcus aureus. The protocol:
S. aureus MRSA (ATCC BAA-1556) was grown overnight in brain heart infusion (BHI) medium, diluted 1:100 in fresh BHI, and incubated aerobically at 37° C. until bacteria growth reached a logarithmic phase (OD600=0.25-0.3).
Triafluocyl (Cayman Chemical, Item No. 15425) (20 μg/ml), Vancomycin (Sigma, 4 μg/ml or 10 μg/ml), Minocycline (Sigma, 8 μg/ml) or a solvent (DMSO) were added to 5 ml of S. aureus MRSA suspensions.
Bacterial growth for S. aureus MRSA was measured after different time intervals by counting the colony-forming units after plating appropriate culture dilutions on BHI agar plates.
S. aureus MRSA (ATCC BAA-1556) was grown overnight in BHI medium, then a 1:100 inoculum was diluted in fresh BHI and incubated aerobically at 37° C. until bacteria growth reached a logarithmic phase (OD600=0.25-0.3). The culture was split into two and challenged with 38 μM Fluometacyl (=18.2 μg/ml) or DMSO (Ctrl). Bacterial growth was measured after different time intervals by counting the colony-forming units after plating appropriate culture dilutions on BHI agar plates. (N=2)

For experiment [3], the system named is Staphylococcus epidermidis (ATCC 35984, also known as RP62A). Nature of the experiment: MIC determination (EUCAST, Mueller-Hinton broth). In kind it is cell-based. The protocol: The Minimal Inhibitory Concentration (MIC) and the Minimal Bactericidal Concentration (MBC) of Triafluocyl were determined in Staphylococcus epidermidis (ATCC 35984, also known as RP62A) according to EUCAST (European Committee on Antimicrobial Susceptibility Testing) recommendations.
Briefly, a single colony grown on a Tryptic Soy Agar (TSA) plate was resuspended and cultured in Tryptic Soy Broth (TSB) overnight (O/N) in aerobic conditions (37° C. with 220 rpm shaking), next day a 1:50 inoculum in Mueller-Hinton broth (MHB) was incubated in aerobic conditions for 3 hr and an inoculum of 1:100 dilution, corresponding to 3×10^5 CFU/ml, was incubated in presence or absence of different concentrations of Triafluocyl in 1% DMSO (vehicle). After O/N growth the OD of each culture was measured at 600 nm in a spectrophotometer (OD600). The MIC represents the concentration at which there is no visible growth of bacteria, i.e. ΔOD at 600 nm equal to zero (blank is the medium alone).
The Minimal Inhibitory Concentration (MIC) and the Minimal Bactericidal Concentration (MBC) of Fluometacyl were determined on several gram-positive strains (Table 2) following EUCAST (European Committee on Antimicrobial susceptibility Testing) recommendations.
For MIC determination a single colony was resuspended and cultured in the appropriate bacteria-specific medium (TSB: Tryptic Soy Broth for S. aureus atcc 25904 and S. epidermidis and BHI: brain-heart infusion medium for all the other strains) overnight (O/N) in aerobic conditions (37° C. with 220 rpm shaking), next day a 1:100 inoculum was incubated in Mueller-Hinton broth (MHB) in aerobic conditions for 3 hr (OD600=0.08-0.1). A further inoculum, 1:300 dilution of the MHB culture, corresponding to 3×10^5 CFU/ml, was grown in presence or absence of different concentrations of Fluometacyl, 1% DMSO in MHB for 20 hr.

Where [4] appears, read: Staphylococcus epidermidis, ATCC35984, S. epidermidis, read-out: MIC.

For the molecule `CCCSc1nc(N[C@@H]2C[C@H]2c2ccc(F)c(F)c2)c2nnn([C@@H]3C[C@H](O)[C@@H](O)[C@H]3O)c2n1` [Fluometacyl, (1S,2R,3S,4R)-4-[7-[[(1R,2S)-2-(3,4-Difluorophenyl)cyclopropyl]amino]-5-(propylthio)-3H-1,2,3-triazolo[4,5-d]pyrimidin-3-yl]-1,2,3-cyclopentanetriol], the MIC in experiment [1] turned out to be 38 µM; in experiment [3] (setting [4]) it was 30 µM. For the same molecule, the “bactericidal activity against S. aureus MRSA (time-kill)” value in experiment [2] (38 μM (=18.2 μg/ml), FIG. 9) is “bactericidal activity”.

Regarding `CCCSc1nc(N[C@@H]2C[C@H]2c2ccc(F)c(F)c2)c2nnn([C@@H]3C[C@H](OCCO)[C@@H](O)[C@H]3O)c2n1` [Triafluocyl, (1S,2S,3R,5S)-3-[7-[(1R,2S)-2-(3,4-difluorophenyl)cyclopropylamino]-5-(propylthio)-3H-[1,2,3]-triazolo[4,5-d]pyrimidin-3-yl]-5-(2-hydroxyethoxy)-1,2-cyclopentanediol], the MIC in experiment [1] is 20 µg/mL; in experiment [3] (S. epidermidis) it was 15 µg/mL; in experiment [3] (setting [4]), 12 ± 3 µg/mL. Further, the “effect on S. aureus MRSA viable count after the first two hours” value in experiment [2] (Triafluocyl 20 μg/ml, Vancomycin 10-fold MIC, Minocycline 8-fold MIC, FIG. 8A) is “decrease of S. aureus MRSA viable count”.
